Results reported in patent publication US20130337051A1, “ADVANCED ACTIVE LIPOSOMAL LOADING OF POORLY WATER-SOLUBLE SUBSTANCES” (priority 2011, published 2013).
≈ marks a conversion by molar mass, not a printed value.

Key:
[1] = physchem; format: physicochemical
Protocol: A chemical molecule (compound B) is presented with a low molecular weight. […] The solubility is increased up to 8 mg/ml in PEG200.
A calpain inhibitor (PD 150606) is presented, having a low molecular weight of 306 Da. […] The solubility is increased up to 8 mg/ml in PEG200.

[2] = Active loading of pre-formed liposomes (encapsulation efficiency, final product); format: physicochemical; conditions: solubilized in pure PEG200 and HPβCD; same pre-formed liposomes (calcium acetate)
Protocol: Liposomes may consist of different phospholipids and cholesterol in several molar ratios in order to modify the transition/processing temperature and particle stability in plasma. […] Components are dissolved in ethanol or iso-propanol. Additionally, for the purpose of increasing the (in vivo) particle stability and enhanced brain delivery, micelles consisting of DSPE-PEG-GSH (up to 5 mol %), which is synthesized before preparation of the liposomes using DSPE-PEG-MAL and fresh solutions of reduced glutathione, and/or DSPE-mPEG (Mw 2000) may be added to the solution at different mol-percentages (up to 5-10 mol % in total). The (lipid) mixture is injected in aqueous solutions containing active loading buffer of different ionic strengths (1-1000 mM), e.g. 2 mg/mL ammonium sulfate or 1 mg/mL calcium acetate. After stirring, the formed vesicles are either extruded through membranes or homogenized in an emulsifier to create liposomes of a uniform size. Alternatively, DSPE-PEG-GSH or DSPE-mPEG is added after preparation of the liposomes by incubation at 25° C. up to 60° C. for 2 up to 24 hours (depending on the phase transition temperature of the lipid mixture and the temperature sensitivity of the agent). […]
The compound is measured with UV at 295 nm at concentrations between 5-60 μg/ml. […]

[3] = pH 7, aqueous with cosolvent or surfactant or cyclodextrin

solubility ([1]; 20 °C) | solubility ([1]; aqueous with cosolvent or surfactant or cyclodextrin) | solubility [1, 3] | solubility in PEG200 [1] | solubility in water [1] | stability at basic pH [1] | active loading into pre-formed liposomes [2] | solubility ([1]; pH 5, aqueous buffer) | solubility ([1]; pH 6, aqueous buffer) | solubility ([1]; pH 7, aqueous buffer) | solubility ([1]; pH 8, aqueous buffer) | Structure (SMILES)
< 100 µg/mL | 2200 µg/mL (≈ 4890 µM) | ≥ 5000 µg/mL | – | – | – | – | – | – | – | – | C[C@@H](Oc1cc(-c2cnn(C3CCNCC3)c2)cnc1N)c1c(Cl)ccc(F)c1Cl [Crizotinib]
– | – | – | up to 8 mg/ml | below 0.05 mg/ml | decomposes | no active loading | – | – | – | – | O=C(O)/C(S)=C/c1ccc(I)cc1 [PD 150606]
– | – | ≤ 2200 µg/mL | – | – | – | – | 3 µg/mL (≈ 18 µM) | 20 µg/mL (≈ 120 µM) | 350 µg/mL (≈ 2090 µM) | 900 µg/mL (≈ 5390 µM) | O=C(O)c1cccnc1C(=O)O [quinolinic acid]
